Assay results: patent publication US9974763B2, “Modulators of intracellular chloride concentration for treating neurodegenerative diseases with Parkinsonian Syndromes” (B & A THERAPEUTICS, priority 2013, dated 2018)
Where two headings read alike, the source gives them in different places.

How the values were obtained:
[1] = system: patient suffering from Parkinson's disease; conditions: for UPDRS motor severity score (III) in the OFF stage: after 2 months of bumetanide, last four weeks at 5 mg/d; for UPDRS II OFF (activities of daily leaving, worst condition) score: at the end of the study
Excerpt: A person, suffering from a 10-year history of Parkinson's disease was included in an open-labeled trial assessing the antiparkinsonian effects of bumetanide. They gave their informed consent to participate. The patient fulfilled the modified Queen's Square Brain Bank criteria of Parkinson's disease (Berardelli et al., 2013). […] Parkinson's disease was at the stage of motor fluctuation and dyskinesia. The OFF periods (bad mobility) lasted for an average of 25-50% of the awakened time. Dyskinesia was mild and intermittent. There was no marked balance impairment or cognitive decline. Antiparkinsonian treatment consisted in: L-DOPA 1,200 mg/d (7 intakes/d), ropinirole 4 mg/d, rasagiline 1 mg/d, tolcapone 300 mg/d. They also received mianserine, citalopram and alprazolam for concomitant anxiety and depression. Bumetanide was progressively titrated up to 3 mg/d (once daily) received for a month. […] The patient was assessed before, 1 month and 2 months after the initiation of bumetanide. At each visit, the patient was asked about any side effects having occurred since the last visit. […] The antiparkinsonian treatment was unchanged during the study. A person, having a 8-year history of Parkinson's disease was included in an open-labeled trial assessing the antiparkinsonian effects of bumetanide. The OFF periods (bad mobility) lasted for an average of 25-50% of the awakened time. Antiparkinsonian treatment consisted in: L-DOPA 625 mg/day (5 intakes/day), entacapone 1,000 mg/day, ropinirole 12 mg/day. Bumetanide: was progressively titrated up to 3 mg/day (once daily) received for a month. […] The patients were assessed before, 1 month and 2 months after the initiation of bumetanide. At each visit, the patient was asked about any side effects having occurred since the last visit. […] The antiparkinsonian treatment was unchanged during the study.

[2] = system: GABAA sPSCs in Medium Spiny Neurons (MSNs) of the striatum in Pink 1 knockout mice; assay: Whole-cell voltage-clamp recordings of spontaneous GABAA currents in basal ganglia slices before and during bath application of bumetanide; type: cell-based, mouse; conditions: for effect on the giant GABAergic pattern (in words): 10 μM; for area gigantic pattern (% of the total area) / giant GABAA sPSCs share of total current charge, Mean: before bumetanide 38±5%; for Giants Amplitude, Mean: P=0.01 vs before bumetanide
Experimental: Pink 1 knockout (Pink1 −/−) mouse is a genetic model of Parkinson's disease.
Pink1 −/− mutant mice of either sex at age 5-7 months were intracardially perfused with the choline solution (see below) at 4° C. and sacrificed by decapitation under halothane anesthesia. Oblique parasagittal slices (380 μm thick) were cut with an angle of 10±2° to obtain the basal ganglia slice (BGS) as described in (Beurrier et al., 2006). For the slicing procedure, the ice-cold oxygenated solution contained (in mM) 110 choline, 2.5 KCl, 1.25 NaH2PO4, 7 MgCl2, 0.5 CaCl2, 25 NaHCO3, 7 glucose. During the recovery period, BGS were placed at room temperature with standard artificial cerebrospinal fluid (ACSF) saturated with 95% O2 5% CO2 and containing (in mM): 126 NaCl, 3.5 KCl, 1.2 NaH2PO4, 1.3 MgCl2, 2 CaCl2, 25 NaHCO3, 11 glucose.
All recordings were made at 32° C. Cells were visualized with infrared-differential interference optics (Axioskop2, Zeiss). For whole-cell voltage-clamp recordings of postsynaptic GABAA currents, the pipette (6-10 MΩ) contained (in mM): 128.5 K-gluconate, 11.5 KCl, 1 CaCl2, 10 EGTA, 10 HEPES, 2.5 MgATP and 0.3 NaGTP, pH 7.32, 280 mOsm. The KGlu pipette solutions gave a reversal potential for chloride close to −63 mV at 35° C. Biocytin (Sigma, 5 mg/ml) was added to the pipette solution and osmolarity corrected when necessary. We performed patch-clamp recordings in whole cell configuration using the Digidata 1344A interface, the Multiclamp 700A amplifier and PClamp8 software (Axon Instruments, Foster City, Calif.). We identified medium spiny neurons (MSNs) during recordings based on their typical rectification during hyperpolarizing steps and their firing delay in response to depolarizing steps. MSNs were also identified by their morphological characteristics after the recording session (see immunocytochemistry). We measured spontaneous GABAA currents (GABAA sPSCs) from MSNs in voltage clamp mode at the reversal potential for glutamatergic (+10 mV) events (Cossart et al., 2000). These currents were stored on Pclamp8 (Axon Instruments, Foster City, Calif., USA) and analyzed off-line with Mini Analysis program (Synaptosoft 6.0, CA, USA), Clampfit 9.2, Origin 5.0 and Autosignal 1.7 to determine the frequency and amplitude of GABAA sPSCs. All detected currents were then visually inspected to reject artefactual events.
We defined as a burst a minimum of five sPSCs associated with a baseline elevation. More than five giant events and three bursts were required during the three min analysis for the pattern to be deemed “oscillatory”. The current charge was automatically calculated by the Mini Analysis Software as the area under the curve value (taking the onset, peak and decay time points as references for each event).
GABAA sPSCs were recorded from identified MSNs before and during bath application of Bumetanide.
For statistical comparison of data we performed paired t-tests. Error bars indicate SEM. ***P<0.001; ns (non-significant).

[3] = system: GABAA sPSCs in Medium Spiny Neurons (MSNs) of the striatum in Pink 1 knockout mice; conditions: Dehorter et al 2012; cited from earlier work
[4] = bumetanide 10 μM, 15-30 min, Pink1 KO MSNs
[5] = bumetanide 10 μM, 15-30 min, Pink1 KO MSNs, listed as Bume
[6] = bumetanide 10 μM, 15-30 min, n=42 events
[7] = bumetanide 10 μM, 15-30 min, three min analysis

CCCCNc1cc(C(=O)O)cc(S(N)(=O)=O)c1Oc1ccccc1 [Bumetanide, bumetanide]
dyskinesia ([1]; human, in vivo): no worsening
overall improvement evaluated by the patient and the caregiver ([1]; patient 1): about 30%
improvement (decrease) of UPDRS motor (III) score in the OFF stage ([1]; patient 1, 2 months vs before treatment): 34%
UPDRS motor severity score (III) in the OFF stage ([1]; patient 1, 44 before treatment): 29
motor condition / Parkinsonism as noticed by the patient and their caregiver ([1]; patient 1, after 2 weeks at 5 mg/d): marked improvement
OFF time duration ([1]; patient 1, after 2 weeks at 5 mg/d, baseline 25-50%): less than 25 % of the awakened time
UPDRS II OFF (activities of daily leaving, worst condition) score ([1]; patient 1, 30 at baseline): 18
improvement (decrease) of UPDRS II in the worst condition ([1]; patient 1, end of study vs baseline): 40%
UPDRS II in the best condition ([1]; patient 1, score 0): unchanged
improvement of UPDRS motor severity score (III) in the OFF stage ([1]; patient 2, 2 months vs before treatment): 56%
UPDRS II in the best condition ([1]; patient 2, 2 vs 3): unchanged
UPDRS motor severity score (III) in the OFF stage ([1]; patient 2, 25 before treatment): 11
UPDRS II OFF (activities of daily leaving, worst condition) score ([1]; patient 2, 15 at baseline): 10
improvement of UPDRS II in the worst condition ([1]; patient 2, end of study vs baseline): 33%
effect on the giant GABAergic pattern (in words) ([2]; 15-30 min, Pink1 KO MSNs): blocked the giant pattern
effect on the giant GABAergic pattern (in words) ([2]; 15-30 min, Pink1 KO MSNs, listed as bumetanide): block these gigantic currents completely
time of treatment after which the effect was stable ([2]; bath application, final concentration 10 μM): 15 min
TOTAL AREA, Mean ([2]; bumetanide 10 μM bath, 15-30 min, Pink1 KO MSNs with giant pattern, VH=+10 mV): 290 pA · ms
Pink1 KO MSNs showing giant GABAA PSCs in which the block was observed ([2]; bumetanide 10 μM, 15-30 min): 10/10
effect on bursts of GABAA sPSCs (in words) ([2]; bumetanide 10 μM, 15-30 min): totally disappeared
mean frequency of single giant GABAA sPSCs ([2]; bumetanide 10 μM, 15-30 min, P=0.02 vs before bumetanide): 0.10±0.05 Hz
Tonic pattern: Amplitude of GABAA PSCs, Mean [2, 4]: 36±4 pA
Tonic pattern: Frequency of GABAA PSCs, Mean [2, 4]: 2.9±0.5 Hz
mean total current charge ([2]; bumetanide 10 μM, 15-30 min, Pink1 KO MSNs, before bumetanide 566±74): 290±70 nA·ms
Tonic pattern: Amplitude of GABAA PSCs, Mean [2, 5]: 36.0 pA
Tonic pattern: Frequency of GABAA PSCs, Mean [2, 5]: 2.9 Hz
basal events between giants, share of the total current charge ([2]; bumetanide 10 μM, 15-30 min, before 62±5%, P=0.0003): 90±3%
area gigantic pattern (% of the total area) / giant GABAA sPSCs share of total current charge, Mean ([2]; bumetanide 10 μM, 15-30 min, P=0.0003): 11.7±3.9%
area gigantic pattern (% of the total area) / giant GABAA sPSCs share of total current charge, Mean ([2]; bumetanide 10 μM, 15-30 min, P=0.0003, listed as Bume): 11.7%
range of amplitude of single giant GABAA sPSCs [2, 6]: 203-593 pA
Giants Amplitude, Mean [2, 6]: 338.2±22.5 pA
Giants Amplitude, Mean ([2]; bumetanide 10 μM, 15-30 min, n=42 events, listed as Bume): 338.2 pA
Giants Frequency, Mean ([2]; bumetanide 10 μM, 15-30 min, table value, unit not given): 0.10
n bursts, Mean [2, 7]: 0.2
n giants (>200 pA), Mean [2, 7]: 5.6
decrease of the mean total current charge ([2]; bumetanide 10 μM, 15-30 min vs before bumetanide, P=0.0002): 49%
number of individual giant GABAA sPSCs still present during the three-minutes sequence analyzed ([2]; bumetanide 10 μM, versus 237 before bumetanide): 42 events

N[C@@H](Cc1ccc(O)c(O)c1)C(=O)O [L Dopa]
effect on the gigantic current pattern (in words) [3]: alleviate this pattern
